# According to patent publication US3966745A, “Vinvamine series cycloalkyl-alkyl esters” (Synthelabo, priority 1973, dated 1976):
# Tests used:
# [1] = Acute toxicity (LD50, mice, intraperitoneal); settings: mouse, in vivo, ip; intraperitoneal administration; Swiss mice of both sexes; method of Miller and Tainter
# Description: The tests were carried out on mice of the Swiss strain of both sexes, each weighing 20 g on average. The LD50 's were calculated in accordance with the method of Miller and Tainter (Proc. Soc. exp. Biol. Med., 1944, 57, 261).
# mice = assay: Hypobaric anoxia in mice (survival time); type: in vivo, male mice of the Swiss strain; settings: for ED (100% increase in survival time): Mus musculus, ip, intraperitoneal administration, dose which increases survival time by 100%, residual pressure 19 cm of Hg, read-out: MAD (mean active dose), absolute value; for therapeutic index relative to that of vincamine (times more favourable): from LD50 and MAD, mice, intraperitoneal, versus vincamine
# From the text: The mice are kept in an atmosphere which is depleted in oxygen by creating a partial vacuum. The degree of anoxia was chosen after preliminary tests. The survival time of the control and treated animals is noted.
# The chamber into which the animals are introduced is a chemical desiccator, divided into 7 compartments. Calcium oxide is placed in this chamber in order to absorb the expired carbon dioxide. This desicator is connected to a vacuum pump and to a manometer to measure the residual pressure.
# The injections are carried out using a volume of 0.5 ml per 20 g of body weight.
# 7 animals are introduced at the same time into the chamber, i.e. 1 control mouse (treated with physiological serum), 3 mice each treated with a different dose of a reference substance, and three mice each treated with a different dose of a test substance.
# The chamber is then evacuated until the residual pressure therein is 19 cm of Hg (this is achieved in approximately 30 seconds).
# The survival time i.e. the time until the animals stop breathing of each of the animals is then recorded. […] The percentage increases are calculated from values obtained for each batch of animals.
# The reference substance was vincamine.
Structure (SMILES),LD50 [1] [mg/kg],ED (100% increase in survival time) (mice) [mg/kg],therapeutic index relative to that of vincamine (times more favourable) (mice) [times]
"CCC12CCCN3CCc4c(n(c5ccccc45)C(O)(C(=O)OCC4CC4)C1)C32 (stereo not shown) [SL 72-401, Cyclopropylmethyl vincaminate]",220,11,–
"CCC12C=C(C(=O)OCC3CC3)n3c4c(c5ccccc53)CCN(CCC1)C42 (stereo not shown) [SL 73-005, Cyclopropylmethyl apovincaminate]",380,6,2.5
"CCC12CCCN3CCc4c(n(c5ccccc45)C(C(=O)OCC4CC4)C1)C32 (stereo not shown) [SL 73-041, Cyclopropylmethyl desoxyvincaminate]",260,6,1.6
"CC[C@]12CCCN3CCc4c(n(c5ccccc45)[C@@](O)(C(=O)OC)C1)[C@@H]32 [Vincamine, vincamine, reference compound]",215,8,–
